Structures can show the parent of a compound that is named as a salt.
test system: MC3T3-E1 cells; assay: ALP activity, differentiation of osteoblast cells; format: cell-based; details: Mus musculus, MC3T3-E1, 144 h; MC3T3E1 cells treated with 10 μM compound and OF; relates activity to OF-only group (100%); higher = more efficacious
Description: To examine the effects of the inventive indenone derivatives on the differentiation and activation of osteoblast cells, the activity and expression of alkaline phosphatase (ALP), a marker for the differentiation of osteoblast cells, and the bone nodule formation using a mouse derived osteoblast-like cells, MC3T3-E1 (ATCC, Japan) or a primary mouse calvaria derived preosteoblastic cells were observed.
MC3T3-E 1 cells were seeded in a medium containing osteogenic factors (OF) such as ascorbic acids and β-glycerophosphates (b-GP), and each compound of Examples was added thereto at a concentration of 0.1, 1 and 10 μM. The cells were incubated for 6 days (MC3T3-E1 cells) or 7 days (primary mouse calvaria derived preosteoblastic cells) in a 37° C. CO2 incubator. Then, the culture medium was replaced with a fresh medium together with the test compound every two or three days. On the last day, the medium was centrifuged to remove the supernatant, and the cells were washed with PBS. The washed cells were subjected to a 3-cycle freege-thaw treatment using a −70° C. deep freezer to allow enzymes elute in a lysis buffer. The lysed protein was quantified, followed by measurement of ALP activity using 4-nitrophenylphosphate.
Further, a group treated only with DMSO or OF was tested for ALP activities for comparison.

Row | SMILES | activity at 10 µM
1 | CC(C)(C)OC(=O)N1CCN(CCOc2ccc3c(c2)C(=O)C(c2cccnc2)=C3c2ccccc2)CC1 [Example 44, tert-butyl 4-(2-(1-oxo-3-phenyl-2-(pyridin-3-yl)-1H-inden-6-yloxy)ethyl)piperazine-1-carboxylate] | 710%
2 | CS(=O)(=O)N1CCN(CCOc2ccc3c(c2)C(=O)C(c2cccnc2)=C3c2ccccc2)CC1 [Example 45, 6-[2-(4-(methylsulfonyl)piperazin-1-yl)ethoxy]-3-phenyl-2-(pyridin-3-yl)-1H-inden-1-one hydrochloride salt] | 192%
3 | O=C1C(c2cccnc2)=C(c2ccccc2)c2ccc(OCCN3CCNCC3)cc21 [Example 46, 6-(2-(piperazin-1-yl)ethoxy)-3-phenyl-2-(pyridin-3-yl)-1H-inden-1-one] | 107%
4 | CS(=O)(=O)N1CCN(CCOc2ccc3c(c2)C(=O)C(c2ccc(F)c(F)c2)=C3c2ccc(C(F)(F)F)cc2)CC1 [Example 48, 2-(3,4-difluorophenyl)-6-(2-(4-(methylsulfonyl)piperazin-1-yl)ethoxy)-3-(4-(trifluoromethyl)phenyl)-1H-inden-1-one] | 67%
5 | CS(=O)(=O)N1CCN(CCOc2ccc3c(c2)C(=O)C(c2cncnc2)=C3c2ccc(C(F)(F)F)cc2)CC1 [Example 49, 6-(2-(4-(methylsulfonyl)piperazin-1-yl)ethoxy)-2-(pyrimidin-5-yl)-3-(4-(trifluoromethyl)phenyl)-1H-inden-1-one] | 37%
6 | CS(=O)(=O)N1CCN(CCOc2ccc3c(c2)C(=O)C(c2ccc(F)c(F)c2)=C3c2cc(F)cc(F)c2)CC1 [Example 51, 2-(3,4-difluorophenyl)-3-(3,5-difluorophenyl)-6-(2-(4-(methylsulfonyl)piperazin-1-yl)ethoxy)-1H-inden-1-one hydrochloride salt] | 33%
7 | CS(=O)(=O)N1CCN(CCOc2ccc3c(c2)C(=O)C(c2cncnc2)=C3c2cc(F)cc(F)c2)CC1 [Example 52, 3-(3,5-difluorophenyl)-6-(2-(4-(methylsulfonyl)piperazin-1-yl)ethoxy)-2-(pyrimidin-5-yl)-1H-inden-1-one hydrochloride salt] | 50%
8 | CS(=O)(=O)N1CCN(CCOc2ccc3c(c2)C(=O)C(c2ccc(F)c(F)c2)=C3c2ccc(Cl)cc2)CC1 [Example 53, 3-(4-chlorophenyl)-2-(3,4-difluorophenyl)-6-(2-(4-(methylsulfonyl)piperazin-1-yl)ethoxy)-1H-inden-1-one hydrochloride salt] | 27%
9 | CS(=O)(=O)N1CCN(CCOc2ccc3c(c2)C(=O)C(c2cncnc2)=C3c2ccc(Cl)cc2)CC1 [Example 54, 3-(4-chlorophenyl)-6-(2-(4-(methylsulfonyl)piperazin-1-yl)ethoxy)-2-(pyrimidin-5-yl)-1H-inden-1-one hydrochloride salt] | 62%
10 | CC(C)(C)OC(=O)N1CCN(CCCOc2ccc3c(c2)C(=O)C(c2cccnc2)=C3c2ccccc2)CC1 [Example 55, tert-Butyl 4-(3-(1-oxo-3-phenyl-2-(pyridin-3-yl)-1H-inden-6-yloxy)propyl)piperazine-1-carboxylate] | 129%
11 | CN(C)CCOc1ccc2c(c1)C(=O)C(c1cccnc1)=C2c1ccccc1 [Example 56, 6-(2-(dimethylamino)ethoxy)-3-phenyl-2-(pyridin-3-yl)-1H-inden-1-one hydrochloride salt] | 71%
12 | CN(C)CCCOc1ccc2c(c1)C(=O)C(c1cccnc1)=C2c1ccccc1 [Example 57, 6-(3-(dimethylamino)propoxy)-3-phenyl-2-(pyridin-3-yl)-1H-inden-1-one hydrochloride salt] | 62%
13 | CC(C)(C)OC(=O)N1CCN(CCOc2ccc3c(c2)C(=O)C(c2cccnc2)=C3c2cc(F)cc(F)c2)CC1 [Example 58, tert-Butyl 4-(2-(3-(3,5-difluorophenyl)-1-oxo-2-(pyridin-3-yl)-1H-inden-6-yloxy)ethyl)piperazine-1-carboxylate] | 19%
14 | CS(=O)(=O)N1CCN(CCOc2ccc3c(c2)C(=O)C(c2cccnc2)=C3c2cc(F)cc(F)c2)CC1 [Example 59, 3-(3,5-difluorophenyl)-6-(2-(4-(methylsulfonyl)piperazin-1-yl)ethoxy)-2-(pyridin-3-yl)-1H-inden-1-one hydrochloride salt] | 254%
15 | CN(C)CCCOc1ccc2c(c1)C(=O)C(c1cccnc1)=C2c1cc(F)cc(F)c1 [Example 60, 3-(3,5-difluorophenyl)-6-(3-(dimethylamino)propoxy)-2-(pyridin-3-yl)-1H-inden-1-one hydrochloride salt] | 19%
16 | O=C1C(c2cccnc2)=C(c2cc(F)cc(F)c2)c2ccc(OCCc3ccccc3)cc21 [Example 61, 3-(3,5-difluorophenyl)-6-phenethoxy-2-(pyridin-3-yl)-1H-inden-1-one hydrochloride salt] | 113%

Row | SMILES | activity at 10 µM
17 | O=C1C(c2cccnc2)=C(c2cc(F)cc(F)c2)c2ccc(OCCc3ccccn3)cc21 [Example 62, 3-(3,5-difluorophenyl)-6-(2-(pyridin-2-yl)ethoxy)-2-(pyridin-3-yl)-1H-inden-1-one hydrochloride salt] | 90%
18 | O=C1C(c2cccnc2)=C(c2cc(F)cc(F)c2)c2ccc(OCCN3CCCCC3)cc21 [Example 63, 3-(3,5-difluorophenyl)-6-(2-(piperidin-1-yl)ethoxy)-2-(pyridin-3-yl)-1H-inden-1-one hydrochloride salt] | 53%
19 | CC(C)(C)OC(=O)N1CCN(CCCOc2ccc3c(c2)C(=O)C(c2cccnc2)=C3c2cc(F)cc(F)c2)CC1 [Example 64, tert-butyl 4-(3-(3-(3,5-difluorophenyl)-1-oxo-2-(pyridin-3-yl)-1H-inden-6-yloxy)propyl)piperazine-1-carboxylate] | 34%
20 | CN1CCN(CCCOc2ccc3c(c2)C(=O)C(c2cccnc2)=C3c2cc(F)cc(F)c2)CC1 [Example 65, 3-(3,5-difluorophenyl)-6-(3-(4-methylpiperazin-1-yl)propoxy)-2-(pyridin-3-yl)-1H-inden-1-one hydrochloride salt] | 19%
21 | O=C1C(c2cccnc2)=C(c2cc(F)cc(F)c2)c2ccc(OCCCN3CCNCC3)cc21 [Example 66, 3-(3,5-difluorophenyl)-6-(3-(piperazin-1-yl)propoxy)-2-(pyridin-3-yl)-1H-inden-1-one hydrochloride salt] | 70%
22 | CC(=O)N1CCN(CCCOc2ccc3c(c2)C(=O)C(c2cccnc2)=C3c2cc(F)cc(F)c2)CC1 [Example 67, 6-(3-(4-acetylpiperazin-1-yl)propoxy)-3-(3,5-difluorophenyl)-2-(pyridin-3-yl)-1H-inden-1-one hydrochloride salt] | 116%
23 | CS(=O)(=O)N1CCN(CCCOc2ccc3c(c2)C(=O)C(c2cccnc2)=C3c2cc(F)cc(F)c2)CC1 [Example 68, 3-(3,5-difluorophenyl)-6-(3-(4-(methylsulfonyl)piperazin-1-yl)propoxy)-2-(pyridin-3-yl)-1H-inden-1-one hydrochloride salt] | 164%
24 | CC(C)(C)OC(=O)N1CCC(CCOc2ccc3c(c2)C(=O)C(c2cccnc2)=C3c2cc(F)cc(F)c2)CC1 [Example 69, tert-butyl 4-(2-(3-(3,5-difluorophenyl)-1-oxo-2-(pyridin-3-yl)-1H-inden-6-yloxy)ethyl)piperidine-1-carboxylate] | 72%
25 | O=C1C(c2cccnc2)=C(c2cc(F)cc(F)c2)c2ccc(OCCC3CCNCC3)cc21 [Example 70, 3-(3,5-difluorophenyl)-6-(2-(piperidin-4-yl)ethoxy)-2-(pyridin-3-yl)-1H-inden-1-one hydrochloride salt] | 19%
26 | CN1CCC(CCOc2ccc3c(c2)C(=O)C(c2cccnc2)=C3c2cc(F)cc(F)c2)CC1 [Example 71, 3-(3,5-difluorophenyl)-6-(2-(1-methylpiperidin-4-yl)ethoxy)-2-(pyridin-3-yl)-1H-inden-1-one hydrochloride salt] | 19%
27 | CC(=O)N1CCC(CCOc2ccc3c(c2)C(=O)C(c2cccnc2)=C3c2cc(F)cc(F)c2)CC1 [Example 72, 6-(2-(1-acetylpiperidin-4-yl)ethoxy)-3-(3,5-difluorophenyl)-2-(pyridin-3-yl)-1H-inden-1-one hydrochloride salt] | 58%
28 | CS(=O)(=O)N1CCC(CCOc2ccc3c(c2)C(=O)C(c2cccnc2)=C3c2cc(F)cc(F)c2)CC1 [Example 73, 3-(3,5-difluorophenyl)-6-(2-(1-(methylsulfonyl)piperidin-4-yl)ethoxy)-2-(pyridin-3-yl)-1H-inden-1-one hydrochloride salt] | 150%
29 | O=C1C(c2cccnc2)=C(c2cc(F)cc(F)c2)c2ccc(OCCN3CCS(=O)(=O)CC3)cc21 [Example 74, 6-[2-(1,1-dioxothiomorpholin-4-yl)ethoxy]-3-(3,5-difluorophenyl)-2-(pyridin-3-yl)-1H-inden-1-one hydrochloride salt] | 206%
30 | O=C1C(c2cccnc2)=C(c2cc(F)cc(F)c2)c2ccc(OCCC3CCOCC3)cc21 [Example 78, 3-(3,5-difluorophenyl)-2-(pyridin-3-yl)-6-(2-(tetrahydro-2H-pyran-4-yl)ethoxy)-1H-inden-1-one] | 187%
31 | O=C1C(c2cccnc2)=C(c2cc(F)cc(F)c2)c2ccc(OCC3CCCO3)cc21 (stereo not shown) [Example 79, 3-(3,5-difluorophenyl)-2-(pyridin-3-yl)-6-((tetrahydrofuran-2-yl)methoxy)-1H-inden-1-one] | 110%

Reference: patent publication US8877747B2, “Indenone derivative and pharmaceutical composition comprising same” (Korea Research Institute of Chemical Technology, priority 2009, dated 2014)
